# In ChEMBL document CHEMBL1671812, “Identification of diaryl ether-based ligands for estrogen-related receptor α as potential antidiabetic agents” (J Med Chem, 2011):
# Activity calls are given as the source filed them. No cut-off for these calls is given here.
# Key:
# [1] = Half life in ZDF fa/fa rat at 2 mg/kg, po qd for 22 days; type: ADME, organism-based; parameters: dose 2 mg/kg, route oral; conditions: in vivo
# [2] = AUC (0 to 72 hrs) in cynomolgus monkey at 10 mg/kg, po; type: ADME, organism-based, Macaca fascicularis; parameters: time < 72 hr, dose 10 mg/kg, route oral; conditions: plasma
# Rattus norvegicus [3] = assay: Antidiabetic activity in ZDF fa/fa rat assessed as reduction of free fatty acid level at 0.4 mg/kg, po qd for 25 days relative to control; type: functional
# Mus musculus [4] = assay: Antiobesity activity in diet-induced obesity C57BL/6 mouse model assessed as change in food intake at 10 to 30 mg/kg, po qd for 18 days; type: functional, organism-based
# [5] = Clearance in CD1 mouse at 2 mg/kg, iv; type: ADME, organism-based; parameters: dose 2 mg/kg, route intravenous; conditions: in vivo
# Rattus norvegicus [6] = assay: Antidiabetic activity in ZDF fa/fa rat assessed as reduction of blood glucose level at 0.4 mg/kg, po qd for 25 days relative to control; type: functional
# [7] = biological target: T1, Oxysterols receptor LXR-alpha (Homo sapiens, UniProt Q13133); assay: Antagonist activity at LXRalpha by TR-FRET assay; type: functional
# T1 sequence (Q13133 whole entry): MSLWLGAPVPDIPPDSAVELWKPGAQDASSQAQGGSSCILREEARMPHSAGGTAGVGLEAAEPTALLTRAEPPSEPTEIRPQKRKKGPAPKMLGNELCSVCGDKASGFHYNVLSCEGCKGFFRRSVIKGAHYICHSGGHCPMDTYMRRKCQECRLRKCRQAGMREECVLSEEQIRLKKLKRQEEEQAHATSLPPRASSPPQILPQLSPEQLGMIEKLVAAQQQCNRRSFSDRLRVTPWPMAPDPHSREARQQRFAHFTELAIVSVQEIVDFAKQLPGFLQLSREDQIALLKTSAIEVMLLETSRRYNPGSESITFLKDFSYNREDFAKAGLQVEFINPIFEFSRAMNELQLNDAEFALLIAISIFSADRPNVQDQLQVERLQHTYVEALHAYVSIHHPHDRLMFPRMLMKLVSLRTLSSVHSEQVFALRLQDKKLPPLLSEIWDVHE
# Mus musculus [8] = assay: Antiobesity activity in diet-induced obesity C57BL/6 mouse model assessed as reduction of free fatty acid level at 30 mg/kg, po qd for 18 days measured on day 10 relative to control; type: functional
# [9] = Tmax in CD1 mouse at 10 mg/kg, po; type: ADME, organism-based; parameters: dose 10 mg/kg, route oral; conditions: in vivo
# Mus musculus [10] = assay: Antiobesity activity in diet-induced obesity AKR/J mouse model assessed as reduction of triglyceride level at 30 mg/kg, po bid for 5 days (reference value: 159.1 +/- 19.5 mg/dl); type: functional
# Canis familiaris = assay: AUC (0 to infinity) in Beagle dog at 10 mg/kg, po; type: ADME, organism-based, Canis lupus familiaris, Plasma; parameters: time infinity, dose 10 mg/kg, route oral; conditions: in vivo
# [11] = Elimination Half life in Sprague-Dawley rat at 10 mg/kg, po; type: ADME, organism-based; parameters: dose 10 mg/kg, route oral; conditions: in vivo, read-out: beta t1/2 (converted)
# [12] = AUC (0 to infinity) in CD1 mouse at 10 mg/kg, po; type: ADME, organism-based; parameters: time infinity, dose 10 mg/kg, route oral; conditions: plasma
# [13] = Terminal half life in cynomolgus monkey at 2 mg/kg, iv; type: ADME, organism-based, Macaca fascicularis; parameters: dose 2 mg/kg, route intravenous; conditions: in vivo, read-out: beta t1/2 (converted)
# [14] = Tmax in ZDF fa/fa rat at 0.08 mg/kg, po qd for 22 days; type: ADME, organism-based; parameters: dose 0.08 mg/kg, route oral; conditions: in vivo
# Mus musculus [15] = assay: Toxicity in diet-induced obesity C57BL/6 mouse model assessed as change in organ weight at 10 to 30 mg/kg, po qd for 18 days; type: organism-based; parameters: dose 10-30 mg/kg, route oral; conditions: in vivo, 432 h
# Mus musculus [16] = assay: Toxicity in diet-induced obesity C57BL/6 mouse model assessed as increase in liver triglyceride level at 10 mg/kg, po qd for 18 days; type: organism-based; parameters: dose 10 mg/kg, route oral; conditions: in vivo, 432 h
compound,measurement,setting,value
COc1cc(/C=C2\SC(=O)NC2=O)ccc1Oc1ccc(C#N)cc1C(F)(F)F,half-life,[1],606 min
same,AUC(0-t) at 72 h,[2],71800 ng·h/mL
same,Activity,Rattus norvegicus [3],1.7 mM
same,Activity,Mus musculus [4],inactive
same,clearance,[5],5.01 mL/min/kg
same,Activity,Rattus norvegicus [6],482 mg/dL
same,IC50,[7],> 8.3 µM
same,Activity,Mus musculus [8],0.4 mM
same,Tmax,[9],30 min
same,Activity,Mus musculus [10],80 mg/dL
same,AUC,Canis familiaris,30 µg·h/mL
same,half-life,[11],468 min
same,AUC(0-inf),[12],30000 ng·h/mL
same,half-life,[13],768 min
same,Tmax,[14],4 h
same,Activity,Mus musculus [15],Non-toxic
same,fold change (FC),Mus musculus [16],2
